Assay results from patent US12428406B2 (PMV Pharmaceuticals, Inc., priority 2019, dated 2025).

Target: T1, p53 Y220C (Homo sapiens, UniProt P04637, Y220C)
T1 construct: The recombinant protein was a truncation mutant containing only amino acids 94-312 of p53; made in house; host or cells: E. coli
Test: In vitro DNA binding activity assay (HTRF / TR-FRET): stabilization of p53 Y220C and increase of its DNA binding activity
Type: biochemical
Details: recombinant His-tagged p53 Y220C DNA binding domain (aa 94-312), biotin-labeled consensus DNA, incubated at 27° C. or 29° C. for 60 min
Outline: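 Stabilization of the mutant is inferred from increased binding of His-tagged p53 Y220C to a biotin-labeled consensus DNA, detected by HTRF with europium-streptavidin and APC-anti-His antibody. The concentration giving a 50% rise over compound-free binding is reported as SC150.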

T1 sequence (P04637 94-312, change not shown): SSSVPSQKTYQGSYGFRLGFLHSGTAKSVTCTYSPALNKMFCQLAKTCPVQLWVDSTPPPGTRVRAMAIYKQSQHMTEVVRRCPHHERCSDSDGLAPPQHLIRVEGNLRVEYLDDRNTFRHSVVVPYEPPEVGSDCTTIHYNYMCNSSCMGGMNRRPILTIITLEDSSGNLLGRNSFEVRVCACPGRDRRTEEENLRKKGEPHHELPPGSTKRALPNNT

SMILES	SC150 (concentration of the compound required to increase the DNA binding activity by 50%)
COc1cc(C(=O)NC(C)COC(=O)C(C)C)ccc1NCC#Cc1cc2c(N[C@@H]3CCN(C)C[C@@H]3F)cccc2n1CC(F)(F)F (stereo partly drawn) [Compound 972A, 2-[(4-{[3-(4-{[(3S,4R)-3-fluoro-1-methylpiperidin-4-yl]amino}-1-(2,2,2-trifluoroethyl)-1H-indol-2-yl)prop-2-yn-1-yl]amino}-3-methoxyphenyl)formamido]propyl 2-methylpropanoate]	+ (+ = 0 μM ≤ SC150 < 0.05 μM)
COc1cc(S(C)(=O)=O)ccc1NCC#Cc1cc2c(NC3CCCN(C)CC3)cccc2n1CC(F)(F)F (stereo not drawn) [Compound 988A, 2-{3-[(4-methanesulfonyl-2-methoxyphenyl)amino]prop-1-yn-1-yl}-N-(1-methylazepan-4-yl)-1-(2,2,2-trifluoroethyl)-1H-indol-4-amine]	+ (+ = 0 μM ≤ SC150 < 0.05 μM)
COCC(O)CN1CCCC(Nc2cccc3c2cc(C#CCNc2ccc(S(C)(=O)=O)cc2OC)n3CC(F)(F)F)CC1 (stereo not drawn) [Compound 989A, 1-{4-[(2-{3-[(4-methanesulfonyl-2-methoxyphenyl)amino]prop-1-yn-1-yl}-1-(2,2,2-trifluoroethyl)-1H-indol-4-yl)amino]azepan-1-yl}-3-methoxypropan-2-ol]	+ (+ = 0 μM ≤ SC150 < 0.05 μM)
COc1cc(S(C)(=O)=O)ccc1NCC#Cc1cc2c(NC3CC4CCC(C3)N4C)cccc2n1CC(F)(F)F (stereo not drawn) [Compound 990A, 2-{3-[(4-methanesulfonyl-2-methoxyphenyl)amino]prop-1-yn-1-yl}-N-{8-methyl-8-azabicyclo[3.2.1]octan-3-yl}-1-(2,2,2-trifluoroethyl)-1H-indol-4-amine]	+ (+ = 0 μM ≤ SC150 < 0.05 μM)
CS(=O)(=O)c1ccc(NCC#Cc2cc3c(NC4CCOCC4)cccc3n2CC(F)(F)F)c(OC(F)(F)F)c1 [Compound 991A, 2-(3-{[4-methanesulfonyl-2-(trifluoromethoxy)phenyl]amino}prop-1-yn-1-yl)-N-(oxan-4-yl)-1-(2,2,2-trifluoroethyl)-1H-indol-4-amine]	+ (+ = 0 μM ≤ SC150 < 0.05 μM)
COc1cc(S(=O)(=O)Nc2ccon2)ccc1NCC#Cc1cc2c(NC3CCOCC3)cccc2n1CC(F)(F)F [Compound 992A, 3-methoxy-4-[(3-{4-[(oxan-4-yl)amino]-1-(2,2,2-trifluoroethyl)-1H-indol-2-yl}prop-2-yn-1-yl)amino]-N-(1,2-oxazol-3-yl)benzene-1-sulfonamide]	+ (+ = 0 μM ≤ SC150 < 0.05 μM)
COc1cc(S(=O)(=O)NC2CCOCC2)ccc1NCC#Cc1cc2c(NC3CCOCC3)cccc2n1CC(F)(F)F [Compound 993A, 3-methoxy-N-(oxan-4-yl)-4-[(3-{4-[(oxan-4-yl)amino]-1-(2,2,2-trifluoroethyl)-1H-indol-2-yl}prop-2-yn-1-yl)amino]benzene-1-sulfonamide]	+ (+ = 0 μM ≤ SC150 < 0.05 μM)
COc1cc(S(=O)(=O)Nc2cc(C)on2)ccc1NCC#Cc1cc2c(NC3CCOCC3)cccc2n1CC(F)(F)F [Compound 994A, 3-methoxy-N-(5-methyl-1,2-oxazol-3-yl)-4-[(3-{4-[(oxan-4-yl)amino]-1-(2,2,2-trifluoroethyl)-1H-indol-2-yl}prop-2-yn-1-yl)amino]benzene-1-sulfonamide]	+ (+ = 0 μM ≤ SC150 < 0.05 μM)
COc1cc(C(C)(C)C#N)ncc1NCC#Cc1cc2c(NC3CCOCC3)cccc2n1CC(F)(F)F [Compound 995A, 2-{4-methoxy-5-[(3-{4-[(oxan-4-yl)amino]-1-(2,2,2-trifluoroethyl)-1H-indol-2-yl}prop-2-yn-1-yl)amino]pyridin-2-yl}-2-methylpropanenitrile]	+ (+ = 0 μM ≤ SC150 < 0.05 μM)
COc1cc(S(=O)(=O)N(C)CCO)ccc1NCC#Cc1cc2c(NC3CCOCC3)cccc2n1CC(F)(F)F [Compound 996A, N-(2-hydroxyethyl)-3-methoxy-N-methyl-4-[(3-{4-[(oxan-4-yl)amino]-1-(2,2,2-trifluoroethyl)-1H-indol-2-yl}prop-2-yn-1-yl)amino]benzene-1-sulfonamide]	+ (+ = 0 μM ≤ SC150 < 0.05 μM)
COc1cc(S(C)(=O)=O)ccc1NCC#Cc1cc2c(NC3CCOCC3)cc(F)cc2n1CC(F)(F)F [Compound 997A, 6-fluoro-2-{3-[(4-methanesulfonyl-2-methoxyphenyl)amino]prop-1-yn-1-yl}-N-(oxan-4-yl)-1-(2,2,2-trifluoroethyl)-1H-indol-4-amine]	+ (+ = 0 μM ≤ SC150 < 0.05 μM)
COc1cc(S(N)(=O)=O)ccc1NCC#Cc1cc2c(NC3CCOCC3)cc(F)cc2n1CC(F)(F)F [Compound 998A, 4-[(3-{6-fluoro-4-[(oxan-4-yl)amino]-1-(2,2,2-trifluoroethyl)-1H-indol-2-yl}prop-2-yn-1-yl)amino]-3-methoxybenzene-1-sulfonamide]	+ (+ = 0 μM ≤ SC150 < 0.05 μM)
COc1cc(S(=O)(=O)N(C)C)ccc1NCC#Cc1cc2c(NC3CCOCC3)cccc2n1CC(F)(F)F [Compound 999A, 3-methoxy-N,N-dimethyl-4-[(3-{4-[(oxan-4-yl)amino]-1-(2,2,2-trifluoroethyl)-1H-indol-2-yl}prop-2-yn-1-yl)amino]benzene-1-sulfonamide]	+ (+ = 0 μM ≤ SC150 < 0.05 μM)
COc1cc(S(=O)(=O)N2CCN(C(C)=O)CC2)ccc1NCC#Cc1cc2c(NC3CCOCC3)cccc2n1CC(F)(F)F [Compound 1001A, 1-(4-{3-methoxy-4-[(3-{4-[(oxan-4-yl)amino]-1-(2,2,2-trifluoroethyl)-1H-indol-2-yl}prop-2-yn-1-yl)amino]benzenesulfonyl}piperazin-1-yl)ethan-1-one]	+ (+ = 0 μM ≤ SC150 < 0.05 μM)
COc1cc(S(=O)(=O)N2CCOCC2)ccc1NCC#Cc1cc2c(NC3CCOCC3)cccc2n1CC(F)(F)F [Compound 1002A, 2-(3-{[2-methoxy-4-(morpholine-4-sulfonyl)phenyl]amino}prop-1-yn-1-yl)-N-(oxan-4-yl)-1-(2,2,2-trifluoroethyl)-1H-indol-4-amine]	+ (+ = 0 μM ≤ SC150 < 0.05 μM)
CNC(=O)c1ccc(NCC#Cc2cc3c(NC4CCOCC4)cccc3n2CC(F)(F)F)c(OC)c1 [Compound 1003A]	+ (+ = 0 μM ≤ SC150 < 0.05 μM)
COc1cc(S(=O)(=O)N(CCO)CCO)ccc1NCC#Cc1cc2c(NC3CCOCC3)cccc2n1CC(F)(F)F [Compound 1007A, N,N-bis(2-hydroxyethyl)-3-methoxy-4-[(3-{4-[(oxan-4-yl)amino]-1-(2,2,2-trifluoroethyl)-1H-indol-2-yl}prop-2-yn-1-yl)amino]benzene-1-sulfonamide]	+ (+ = 0 μM ≤ SC150 < 0.05 μM)
CNS(=O)(=O)c1ccc(NCC#Cc2cc3c(NC4CCOCC4)cccc3n2CC(F)(F)F)c(OC)c1 [Compound 1008A]	+ (+ = 0 μM ≤ SC150 < 0.05 μM)
CS(=O)(=O)c1ccc(NCC#Cc2cc3c(NC4CCOCC4)cccc3n2CC(F)(F)F)c(O)c1 [Compound 1009A, 5-methanesulfonyl-2-[(3-{4-[(oxan-4-yl)amino]-1-(2,2,2-trifluoroethyl)-1H-indol-2-yl}prop-2-yn-1-yl)amino]phenol]	+ (+ = 0 μM ≤ SC150 < 0.05 μM)
COc1cc(S(N)(=O)=O)ccc1NCC#Cc1cc2c(NC3CCOCC3)c(OC)ccc2n1CC(F)(F)F [Compound 1010A, 3-methoxy-4-[(3-{5-methoxy-4-[(oxan-4-yl)amino]-1-(2,2,2-trifluoroethyl)-1H-indol-2-yl}prop-2-yn-1-yl)amino]benzene-1-sulfonamide]	++++ (++++ = 0.2 μM ≤ SC150 < 1 μM)
COc1cc(S(=O)(=O)N2CCN(C)CC2)ccc1NCC#Cc1cc2c(NC3CCOCC3)cccc2n1CC(F)(F)F [Compound 1011A, 2-[3-({2-methoxy-4-[(4-methylpiperazin-1-yl)sulfonyl]phenyl}amino)prop-1-yn-1-yl]-N-(oxan-4-yl)-1-(2,2,2-trifluoroethyl)-1H-indol-4-amine]	+ (+ = 0 μM ≤ SC150 < 0.05 μM)
COc1cc(S(C)(=O)=O)ccc1NCC#Cc1cc2c(NC3CCOCC3)c(OC)ccc2n1CC(F)(F)F [Compound 1012A, 2-{3-[(4-methanesulfonyl-2-methoxyphenyl)amino]prop-1-yn-1-yl}-5-methoxy-N-(oxan-4-yl)-1-(2,2,2-trifluoroethyl)-1H-indol-4-amine]	++++ (++++ = 0.2 μM ≤ SC150 < 1 μM)
COc1cc(NC2CCOCC2)c2cc(C#CCNc3ccc(S(N)(=O)=O)cc3OC)n(CC(F)(F)F)c2c1 [Compound 1013A, 3-methoxy-4-[(3-{6-methoxy-4-[(oxan-4-yl)amino]-1-(2,2,2-trifluoroethyl)-1H-indol-2-yl}prop-2-yn-1-yl)amino]benzene-1-sulfonamide]	+++ (+++ = 0.1 μM ≤ SC150 < 0.2 μM)
CCC(=O)Oc1cc(S(C)(=O)=O)ccc1NCC#Cc1cc2c(NC3CCOCC3)cccc2n1CC(F)(F)F [Compound 1014A, 5-methanesulfonyl-2-[(3-{4-[(oxan-4-yl)amino]-1-(2,2,2-trifluoroethyl)-1H-indol-2-yl}prop-2-yn-1-yl)amino]phenyl propanoate]	+ (+ = 0 μM ≤ SC150 < 0.05 μM)
